Results: patent publication US20260034192A1 (University of Saskatchewan, priority 2022, published 2026)
Marks after values point to notes of the source that are not given here. Square brackets hold non-standard residues; d marks the D form. Peptide text beside a SMILES is read from it. dPhe(4-Cl) = N[C@H](Cc1ccc(Cl)cc1)C(=O)O; d2Nal = N[C@H](Cc1ccc2ccccc2c1)C(=O)O; dCit = NC(=O)NCCC[C@@H](N)C(=O)O; d3Pal = N[C@H](Cc1cccnc1)C(=O)O

How the values were obtained:
[1] = system: Brahman x Angus cross beef post-partum cows; assay: Field trial of fixed-time AI after cetrorelix versus estradiol protocol (Example 8); type: in vivo, cattle
Description: This field trial was conducted by a faculty member of the Federal University of Santa Maria at a client beef farm in Brazil in December 2022. A total of 216 Brahman x Angus cross beef post-partum cows were used for this experiment. Cows were divided into two treatment groups ([…]) and were either given cetrorelix 3 mg i/m or estradiol benzoate on a random day of the cycle (defined as Day 0). An intravaginal progesterone device (CIDR) was placed in all cows on Day 0. The CIDR devices were removed on Day 8 and animals were given prostaglandin F2a analog and equine choriogonadotropin (eCG). Fixed-time artificial insemination was done 54 hrs after CIDR removal and animals were given GnRH at this time. Pregnancy diagnosis was performed on Day 30 after artificial insemination. Transrectal ultrasound examinations were performed on Day 0, Day 8, Day 10 and Day 40.

heifers = assay: Single 3 mg Cetrorelix injection on Day 1, 3 or 6 of wave in heifers (Example 5); type: in vivo, cattle; conditions: for Pregnant/AI: diagnosis 30 days after AI; for Ovulatory follicle size: in mm (unit assumed)
Description: Heifers on a random day of the cycle were treated with two i/m injections of prostaglandin analog and observed by transrectal ultrasonography for the day of ovulation (Defined as Day 0 of the wave). Heifers were then randomized into 4 groups (n=7 to 8 per group) and treated with normal saline (control group) or a single 3 mg i/m injection of cetrorelix on Day 1, Day 3 or Day 6 of the first follicular wave. […] Pregnancy diagnosis was done 30 days after artificial insemination.

bovine pituitary cells = assay: GnRH-induced LH secretion of bovine pituitary cells in vitro (Example 9); type: cell-based; conditions: 300 μg cetrorelix, 340 μg Degarelix, 300 ug Abarelix, 130 μg Relugolix
Description: Methods: The heads of mature, non-pregnant cows (n=4) were collected from a local abattoir and the pituitary glands were dissected within 60 minutes of slaughter. Immediately following the dissection, the pituitaries were submerged into ice-cold collection medium. The pituitaries were washed 3 times in collection media and the neurohypophysis was dissected from the adenohypophysis. Using a scalpel, the adenohypophysis (anterior pituitary) was sliced into 1 mm×1 mm pieces and transferred to a 50 mL falcon tube containing DMEM medium with 0.5% BSA. The tissue pieces were washed by manually agitating the tube for 1 minute. The tissue pieces were allowed to settle to the bottom of the tube, then the supernatant was discarded. The macerated pieces were transferred to a 15 mL falcon tube with the dissociation medium and incubated at 37° C. for 60 minutes. Every 10 minutes the tube was vortexed for 1 minute to ensure the tissue was completely dissociated. The dissociation media was inactivated using DMEM with 10% SFB then manually agitating the tube for 1 minute. The dissociated cells were placed in a 40 μm cell strainer to remove the undigested tissue and placed into two 15 mL falcon tubes. The cells were centrifuged at 200×g for 10 minutes and the supernatant was discarded. The cells were washed three times by resuspending in DMEM solution with red blood cell lysing buffer followed by centrifuged at 200×g for 10 minutes. Then the cells were washed with DMEM solution and centrifuged at 200×g for 10 minutes. Following the last centrifugation, the cells were resuspended in DMEM, and the trypan blue test was used to determine the cell count and assess viability. DMEM with 10% fetal bovine serum (FBS) was treated with 10% charcoal-dextran and passed through a 0.2 μm filter. The cells were then plated in a 24-well tissue culture plate with a concentration of 1×10^6 viable cells per well and incubated at 37° C. for 24 hours. The following day, to starve the cells, the culture media was replaced with DMEM without FBS and left to incubate for another 24 hours.
Treatments: Based on the results from the pilot study, the selected concentration for Cetrorelix (cetrorelix acetate) was 300 μg. The cetrorelix was dissolved in trace levels of DMSO then dissolved in ultrapure water. To standardize the treatments, the nanomole concentration of each GnRH antagonist were matched with the cetrorelix nanomole concentration. The final concentration used for further experiments were: 300 μg for cetrorelix, 340 μg for Degarelix (Degarelix acetate), 300 ug for Abarelix (Abarelix acetate). Both degarelix and abarelix were dissolved ultrapure water. The equivalent Relugolix nanomole concentration was 130 μg which was dissolved in methanol. Treatment cells were preincubated for 60 minutes with either Cetrorelix, Degarelix, Relugolix or Abarelix. Following the preincubation, the cells were incubated for 30 minutes with either 1 nM or 10 nM of GnRH (Gonadorelin, Fertagyl, Merck Animal Health). GnRH doses were based on pituitary study by Paolicchi et al. 1999). The media were collected and centrifuged at 200×g for 10 minutes to remove the cells. Positive (Control) group was only treated with 1 nM and 10 nM of GnRH to determine the maximum LH secretion. LH concentrations in the culture medium was measured by a commercial bovine specific ELISA kit and reported as mIU/ml of medium.

[2] = 30 days after fixed-time artificial insemination
[3] = single 3 mg i/m on Day 1 (Cetro 1)
[4] = single 3 mg i/m on Day 3 (Cetro 3)
[5] = single 3 mg i/m on Day 6 (Cetro 6)
[6] = three cetrorelix groups combined

## CC(=O)N[C@H](Cc1ccc2ccccc2c1)C(=O)N[C@H](Cc1ccc(Cl)cc1)C(=O)N[C@H](Cc1cccnc1)C(=O)N[C@@H](CO)C(=O)N[C@@H](Cc1ccc(O)cc1)C(=O)N[C@H](CCCNC(N)=O)C(=O)N[C@@H](CC(C)C)C(=O)N[C@@H](CCCNC(=N)N)C(=O)N1CCC[C@H]1C(=O)N[C@H](C)C(N)=O [Cetrorelix, N-acetyl-3-(2-naphthyl)-D-alanyl-4-chloro-D-phenylalanyl-3-(3-pyridyl)-D-alanyl-L-seryl-L-tyrosyl-D-citrullyl-L-leucyl-L-arginyl-L-prolyl-D-alaninamide] (Ac-[d2Nal][dPhe(4-Cl)][d3Pal]SY[dCit]LRP[dA]-NH2)
[1]; [2]
  Conception rate: Percent: 42.6%
  Conception rate: Pregnant/AI: 46/108*
[1]; 30 days after fixed-time artificial insemination, listed as cetrorelix
  Conception rate: Percent: 42.6%
[1]; cetrorelix 3 mg i/m or estradiol benzoate on Day 0, CIDR removal Day 8, in mm
  Size of the dominant follicle on Day 8 (at PGF): 11.04 ± 0.48
[1]; cetrorelix 3 mg i/m or estradiol benzoate on Day 0, in mm
  Size of the dominant follicle on Day 10 (at AI): 12.72 ± 0.65
heifers; single 3 mg (about 7.5 ug/kg) i/m, groups combined
  Wave emergence after the cetrorelix treatment irrespective of the phase of the dominant follicle: about 3.5±0.4 days
heifers; single 3 mg i/m
  Start of dominant follicle regression after cetrorelix treatment: ≤ 2 days
heifers; [3]
  Day of second wave emergence: 4.4 ± 0.5^c
  Days from second wave emergence to ovulation: 10.0 ± 0.6^ab* Days
  Pregnancy rate (Pregnant/AI, percent): (62%)
  Treatment to wave emergence: 3.4 ± 0.5 days
  Pregnant/AI: 5/8
  Ovulatory follicle size: 14.4 ± 1.0
heifers; [4]
  Day of second wave emergence: 7.0 ± 0.4^b
  Days from second wave emergence to ovulation: 9.0 ± 0.4^ab Days
  Pregnancy rate (Pregnant/AI, percent): (66%)
  Treatment to wave emergence (days): 4.0 ± 0.4^ days
  Pregnant/AI: 4/6
  Ovulatory follicle size: 15.8 ± 0.6
heifers; [5]
  Day of second wave emergence: 9.4 ± 0.5^a
  Days from second wave emergence to ovulation: 8.4 ± 0.4^b Days
  Pregnancy rate (Pregnant/AI, percent): (42%)
  Treatment to wave emergence: 3.4 ± 0.5 days
  Pregnant/AI: 3/7
  Ovulatory follicle size: 14.9 ± 0.3
heifers; [6]
  Overall pregnancy rate, percent: 57%
  Overall pregnancy rate, pregnant/AI: 12/21
Bovine pituitary cells; challenged with 1 nM GnRH 30 minutes after 60 minutes preincubation
  LH conc in medium: 0.09 mIU/mL
Bovine pituitary cells; challenged with 10 nM GnRH 30 minutes after 60 minutes preincubation
  LH conc in medium: 0.50 mIU/mL
